In patent US7449463B2, “Morpholinyl containing benzimidazoles as inhibitors of respiratory syncytial virus replication” (Tibotec Pharmaceuticals Ltd., priority 2003, dated 2008):
pEC50: −log10 of the molar value.

Tested on: Respiratory Syncytial Virus
Assay: microbe, parasite or virus in culture
Format: cell-based
Conditions: RSV-infected HeLa cells, MTT readout seven days after infection; −log of EC50 in molar units
Text: In vitro Screening for Activity against Respiratory Syncytial Virus.
The percent protection against cytopathology caused by viruses (antiviral activity or EC50) achieved by tested compounds and their cytotoxicity (CC50) are both calculated from dose-response curves. The selectivity of the antiviral effect is represented by the selectivity index (SI), calculated by dividing the CC50 (cytotoxic dose for 50% of the cells) by the EC50 (antiviral activity for 50% of the cells).
Automated tetrazolium-based colorimetric assays were used for determination of EC50 and CC50 of test compounds. Flat-bottom, 96-well plastic microtiter trays were filled with 180 μl of Eagle's Basal Medium, supplemented with 5% FCS (0% for FLU) and 20 mM Hepes buffer. Subsequently, stock solutions (7.8× final test concentration) of compounds were added in 45 μl volumes to a series of triplicate wells so as to allow simultaneous evaluation of their effects on virus- and mock-infected cells. Five five-fold dilutions were made directly in the microtiter trays using a robot system. Untreated virus controls, and HeLa cell controls were included in each test. Approximately 100 TCID50 of Respiratory Syncytial Virus was added to two of the three rows in a volume of 50 μl. The same volume of medium was added to the third row to measure the cytotoxicity of the compounds at the same concentrations as those used to measure the antiviral activity. After two hours of incubation, a suspension (4×10^5 cells/ml) of HeLa cells was added to all wells in a volume of 50 μl. The cultures were incubated at 37° C. in a 5% CO2 atmosphere. Seven days after infection the cytotoxicity and the antiviral activity was examined spectrophotometrically. To each well of the microtiter tray, 25 μl of a solution of MTT (3-(4,5-dimethylthiazol-2-yl)-2,5-diphenyltetrazolium bromide) was added. The trays were further incubated at 37° C. for 2 hours, after which the medium was removed from each cup. Solubilization of the formazan crystals was achieved by adding 100 μl 2-propanol. Complete dissolution of the formazan crystals were obtained after the trays have been placed on a plate shaker for 10 min. Finally, the absorbances were read in an eight-channel computer-controlled photometer (Multiskan MCC, Flow Laboratories) at two wavelengths (540 and 690 nm). The absorbance measured at 690 nm was automatically subtracted from the absorbance at 540 nm, so as to eliminate the effects of non-specific absorption.

Compared with “2-[5,7-dimethyl-2-(2-morpholin-4-ylethyl-piperidin-4-ylamino)-benzoindazol-1-ylmethyl]-6-methyl-pyridin-3-ol [Compound 162]”, `Cc1ccc(O)c(Cn2c(NCCCN3CCOCC3)nc3ccc(CNc4cc(C#N)ccc4CCO)cc32)n1` [Compound 1] is higher in Activity: 7.9 for the first, 10 for the second.

Compared with `Cc1ccc(O)c(Cn2c(NCCCN3CCOCC3)nc3ccc(CNc4cc(Br)ccc4CCCO)cc32)n1` [Compound 2], `Cc1ccc(O)c(Cn2c(NCCCN3CCOCC3)nc3ccc(CNc4cc(Cl)ccc4CCCO)cc32)n1` [Compound 4] is lower in Activity: 10 for the first, 9.9 for the second.

First: Cc1ccc(OCCO)c(NCc2ccc3nc(NCCCN4CCOCC4)n(Cc4nc(C)ccc4O)c3c2)c1 [Compound 5]
Second: Cc1ccc(CCO)c(NCc2ccc3nc(NCCCN4CCOCC4)n(Cc4nc(C)ccc4O)c3c2)c1 [Compound 7]
The Activity of the first is higher: 9.8 for the first, 9.6 for the second.

`COc1ccc(CCO)c(NCc2ccc3nc(NCCCN4CCOCC4)n(Cc4nc(C)ccc4O)c3c2)c1` [Compound 9] and `C#Cc1ccc(CCO)c(NCc2ccc3nc(NCCCN4CCOCC4)n(Cc4nc(C)ccc4O)c3c2)c1` [Compound 10] are the same in Activity: 9.6 for the first, 9.6 for the second.

Going from `Cc1ccc(O)c(Cn2c(NCCCN3CCOCC3)nc3ccc(CNc4cc(Br)ccc4CCO)cc32)n1` [Compound 11] to `Cc1ccc(O)c(Cn2c(NCCCN3CCOCC3)nc3ccc(CNc4cc(C(F)(F)F)ccc4CCCO)cc32)n1` [Compound 13], the Activity falls from 9.6 to 9.5.

Compared with `COc1ccc(CCCO)c(NCc2ccc3nc(NCCCN4CCOCC4)n(Cc4nc(C)ccc4O)c3c2)c1` [Compound 14], `Cc1ccc(CCC(C)O)c(NCc2ccc3nc(NCCCN4CCOCC4)n(Cc4nc(C)ccc4O)c3c2)c1` (stereo not drawn) [Compound 15] is lower in Activity: 9.4 for the first, 9.3 for the second.

`Cc1ccc(CCC(N)=O)c(NCc2ccc3nc(NCCCN4CCOCC4)n(Cc4nc(C)ccc4O)c3c2)c1` [Compound 16] and `Cc1ccc(O)c(Cn2c(NCCCN3CCOCC3)nc3ccc(CNc4cc(C(C)C)ccc4CCO)cc32)n1` [Compound 17] are the same in Activity: 9.3 for the first, 9.3 for the second.

Going from `Cc1ccc(O)c(Cn2c(NCCCN3CCOCC3)nc3ccc(CNc4cc(F)ccc4CCO)cc32)n1` [Compound 18] to `Cc1ccc(C=CCO)c(NCc2ccc3nc(NCCCN4CCOCC4)n(Cc4nc(C)ccc4O)c3c2)c1` [Compound 19], the Activity falls from 9.6 to 9.3.

Going from `Cc1ccc(CCCCO)c(NCc2ccc3nc(NCCCN4CCOCC4)n(Cc4nc(C)ccc4O)c3c2)c1` [Compound 20] to `Cc1ccc(O)c(Cn2c(NCCCN3CCOCC3)nc3ccc(CNc4ccccc4CCO)cc32)n1` [Compound 22], the Activity falls from 9.2 to 9.1.

Going from `Cc1ccc(O)c(Cn2c(NCCCN3CCOCC3)nc3ccc(CNc4cccc(C)c4CCO)cc32)n1` [Compound 25] to `Cc1ccc(O)c(Cn2c(NCCCN3CCOCC3)nc3ccc(CNc4cccc(Br)c4)cc32)n1` [Compound 26], the Activity falls from 8.9 to 8.7.

First: Cc1ccc(O)c(Cn2c(NCCCN3CCOCC3)nc3ccc(CNc4ccccc4C#N)cc32)n1 [Compound 27]
Second: Cc1cccc(NCc2ccc3nc(NCCCN4CCOCC4)n(Cc4nc(C)ccc4O)c3c2)c1 [Compound 28]
The Activity of the first is higher: 8.7 for the first, 8.6 for the second.

`Cc1ccc(O)c(Cn2c(NCCCN3CCOCC3)nc3ccc(CNc4ccccc4CO)cc32)n1` [Compound 29] and `C#Cc1cccc(NCc2ccc3nc(NCCCN4CCOCC4)n(Cc4nc(C)ccc4O)c3c2)c1` [Compound 30] are the same in Activity: 8.6 for the first, 8.6 for the second.

`Cc1ccc(O)c(Cn2c(NCCCN3CCOCC3)nc3ccc(CNc4cccc(Cl)c4)cc32)n1` [Compound 31] and `Cc1ccc(O)c(Cn2c(NCCCN3CCOCC3)nc3ccc(CNc4ccccc4CCC(N)=O)cc32)n1` [Compound 33] are the same in Activity: 8.6 for the first, 8.6 for the second.

Compared with `Cc1ccc(C#CCO)c(NCc2ccc3nc(NCCCN4CCOCC4)n(Cc4nc(C)ccc4O)c3c2)c1` [Compound 34, 2-[6-{[2-(3-Hydroxy-prop-1-ynyl)-5-methyl-phenylamino]-methyl}-2-(3-morpholin-4-yl-propylamino)-benzoimidazol-1-ylmethyl]-6-methyl-pyridin-3-ol], `Cc1ccc(O)c(Cn2c(NCCCN3CCOCC3)nc3ccc(CNc4cccc(F)c4)cc32)n1` [Compound 35] is lower in Activity: 8.6 for the first, 8.5 for the second.

`Cc1ccc(O)c(Cn2c(NCCCN3CCOCC3)nc3ccc(CNc4cccc(OC(F)(F)F)c4)cc32)n1` [Compound 36] and `Cc1ccc(O)c(Cn2c(NCCCN3CCOCC3)nc3ccc(CNc4ccc(S(N)(=O)=O)cc4)cc32)n1` [Compound 37] are the same in Activity: 8.5 for the first, 8.5 for the second.

`Cc1ccc(O)c(Cn2c(NCCCN3CCOCC3)nc3ccc(CNc4ccc(C(N)=O)cc4)cc32)n1` [Compound 38] and `Cc1ccc(NCCO)c(NCc2ccc3nc(NCCCN4CCOCC4)n(Cc4nc(C)ccc4O)c3c2)c1` [Compound 39] are the same in Activity: 8.5 for the first, 8.5 for the second.

First: Cc1ccc(C)c(NCc2ccc3nc(NCCCN4CCOCC4)n(Cc4nc(C)ccc4O)c3c2)c1 [Compound 40]
Second: CCc1ccccc1NCc1ccc2nc(NCCCN3CCOCC3)n(Cc3nc(C)ccc3O)c2c1 [Compound 41]
The Activity of the first is higher: 8.4 for the first, 8.3 for the second.

Compared with `Cc1ccc(O)c(Cn2c(NCCCN3CCOCC3)nc3ccc(CNc4ccccc4CCN4CCOCC4)cc32)n1` [Compound 42], `Cc1ccc(O)c(Cn2c(NCCCN3CCOCC3)nc3ccc(CNc4cccc(C)c4CO)cc32)n1` [Compound 43] is lower in Activity: 8.3 for the first, 8.2 for the second.

First: Cc1ccc(O)c(Cn2c(NCCCN3CCOCC3)nc3ccc(CNc4cc(C(N)=O)ccc4CCO)cc32)n1 [Compound 44]
Second: Cc1ccc(O)c(Cn2c(NCCCN3CCOCC3)nc3ccc(CNc4ccccc4C(N)=O)cc32)n1 [Compound 45]
The Activity of the first is higher: 8.1 for the first, 7.9 for the second.

Compared with `Cc1ccc(O)c(Cn2c(NCCCN3CCOCC3)nc3ccc(CNc4cccc(CCO)c4)cc32)n1` [Compound 47], `Cc1cc(C)cc(NCc2ccc3c(c2)nc(NCCCN2CCOCC2)n3Cc2nc(C)ccc2O)c1` [Compound 51] is lower in Activity: 7.9 for the first, 7.2 for the second.

First: Cc1ccc(O)c(Cn2c(NCCCN3CCOCC3)nc3ccc(CO)cc32)n1 [Compound 52]
Second: Cc1ccc(O)c(Cn2c(NCCCN3CCOCC3)nc3cc(CO)ccc32)n1 [Compound 53]
The Activity of the first is higher: 7.2 for the first, 5.6 for the second.

First: Cc1cc(C)cc(N(CCCCO)Cc2ccc3nc(NCCCN4CCOCC4)n(Cc4nc(C)ccc4O)c3c2)c1 [Compound 61]
Second: Cc1cc(C)cc(N(CCCO)Cc2ccc3nc(NCCCN4CCOCC4)n(Cc4nc(C)ccc4O)c3c2)c1 [Compound 63]
The Activity of the first is higher: 9.5 for the first, 9.3 for the second.

First: Cc1cc(C)cc(N(CCCCCO)Cc2ccc3nc(NCCCN4CCOCC4)n(Cc4nc(C)ccc4O)c3c2)c1 [Compound 64]
Second: Cc1cc(C)cc(N(CCC(=O)O)Cc2ccc3nc(NCCCN4CCOCC4)n(Cc4nc(C)ccc4O)c3c2)c1 [Compound 69]
The Activity of the first is higher: 9.3 for the first, 8.7 for the second.

Compared with `Cc1cc(C)cc(N(Cc2ccc3nc(NCCCN4CCOCC4)n(Cc4nc(C)ccc4O)c3c2)Cc2c[nH]cn2)c1` [Compound 81], `COCCN(Cc1ccc2nc(NCCCN3CCOCC3)n(Cc3nc(C)ccc3O)c2c1)c1cc(C)cc(C)c1` [Compound 82] is lower in Activity: 8.9 for the first, 8.6 for the second.

`Cc1ccc(O)c(Cn2c(NCCCN3CCOCC3)nc3ccc(CN(CCO)c4cccc(Br)c4)cc32)n1` [Compound 85] and `Cc1cccc(N(CCO)Cc2ccc3nc(NCCCN4CCOCC4)n(Cc4nc(C)ccc4O)c3c2)c1` [Compound 86] are the same in Activity: 9.3 for the first, 9.3 for the second.

Compared with `Cc1ccc(O)c(Cn2c(NCCCN3CCOCC3)nc3ccc(CN(CCO)c4ccc(C#N)cc4)cc32)n1` [Compound 88], `Cc1cccc(N(CCCCO)Cc2ccc3nc(NCCCN4CCOCC4)n(Cc4nc(C)ccc4O)c3c2)c1` [Compound 92] is lower in Activity: 9.1 for the first, 8.8 for the second.

Going from `Cc1cccc(N(CCCO)Cc2ccc3nc(NCCCN4CCOCC4)n(Cc4nc(C)ccc4O)c3c2)c1` [Compound 93] to `Cc1ccc(O)c(Cn2c(NCCCN3CCOCC3)nc3ccc(CN(CCCO)c4cccc(Br)c4)cc32)n1` [Compound 95], the Activity falls from 8.7 to 8.6.

`C=Cc1ccc(CCO)c(NCc2ccc3nc(NCCCN4CCOCC4)n(Cc4nc(C)ccc4O)c3c2)c1` [Compound 6] gave an Activity greater than 9.6.

Same assay, conditions: human respiratory syncytial virus, 168 h; RSV-infected HeLa cells, MTT readout seven days after infection; −log of EC50 in molar units

In the case of `Cc1ccc(O)c(Cn2c(NCCCN3CCOCC3)nc3ccc(CNc4cc(S(C)(=O)=O)ccc4CCO)cc32)n1` [Compound 48], the pEC50 was 7.70.

Same assay, conditions: pEC50 (−log of EC50 when expressed in molar units), protection against RSV cytopathology

With “4-{(3,5-Dimethyl-phenyl)-[3-(3-hydroxy-pyridin-2-ylmethyl)-2-(3-morpholin-4-yl-propylamino)-3H-benzoimidazol-5-ylmethyl]-amino}-butyramide [Compound 228]” the Activity was 8.4.
